Patent US20130245029A1, “TREATMENT OF CANCER WITH TOR KINASE INHIBITORS” (SIGNAL PHARMACEUTICALS, LLC, priority 2012, published 2013)

Tests used:
[1] = test system: ETS overexpressing Ewing sarcoma cell lines; assay: Soft agar colony formation (clonogenic growth inhibition); type: cell-based; conditions: 3 weeks in culture, ETS positive versus ETS negative cell lines, FIG. 1
Protocol: FIG. 1 provides a clonogenic growth inhibition assay for Compound 1 with ETS positive and ETS negative cell lines. […] Soft Agar Colony Formation. A solid layer of 1% agarose is used to coat each well of a 96-well plate. After allowing two hours to cool, five hundred Ewing's cells are suspended in a 33% agarose (10% solution), 33% media with 2×FBS and 33% cell suspension in quadruplicate wells of a 96-well plate. Cells are treated with or without TOR kinase inhibitor in an upper layer of media. Every three days, the media is exchanged for fresh TOR kinase inhibitor containing media. After 3-weeks in culture, images are taken on a 10× objective lens and colonies are counted for each condition.

[2] = test system: Ewing's sarcoma cell lines (ETS positive cells); assay: DNA damage COMET assay; type: cell-based; conditions: 48 hours treatment, FIG. 2
From the text: DNA Damage Assays: COMET Assay.

CCN1C(=O)CNc2ncc(-c3ccc(-c4nc[nH]n4)nc3C)nc21 [Compound 1, 1-ethyl-7-(2-methyl-6-(1H-1,2,4-triazol-3-yl)pyridin-3-yl)-3,4-dihydropyrazino[2,3-b]pyrazin-2(1H)-one]
sensitivity of colony formation to inhibition [1]: more sensitive | DNA damage (COMET tail moments) [2]: potentiates DNA damage
